Patent US6348435B1, “Substituted 2,4-diamino-1,3,5-triazine and their use as herbicides” (Bayer Aktiengesellschaft, priority 1997, dated 2002)

Assays:
[1] = system: Abutilon; test: Post-emergence test/greenhouse; format: in vivo; conditions: 504 h, 1000 g of ai./ha, plants 5-15 cm sprayed, rated after three weeks vs untreated control, 0%=no effect, 100%=total destruction, read-out: degree of damage to the plants, Abutilon
Description: (§1) Solvent: 5 parts by weight of acetone
(§2) Emulsifier: 1 part by weight of alkylaryl polyglycol ether
(§3) To produce a suitable preparation of active compound, 1 part by weight of active compound is mixed with the stated amount of solvent, the stated amount of emulsifier is added and the concentrate is diluted with water to the desired concentration.
(§4) Test plants having a height of 5-15 cm are sprayed with the preparation of active compound such that the particular amounts of active compound desired are applied per unit area. The concentration of the spray liquor is chosen so that the particular amounts of active compound desired are applied in 1000 l of water/ha.
(§5) After three weeks, the degree of damage to the plants is rated in % damage in comparison with the development of the untreated control.
(§6) 0%=no effect (like untreated control)

[2] = system: Amaranthus; test: Post-emergence test/greenhouse; format: in vivo; conditions: 504 h, 1000 g of ai./ha, plants 5-15 cm sprayed, rated after three weeks vs untreated control, 0%=no effect, 100%=total destruction, read-out: degree of damage to the plants, Amaranthus
Description: as §1, §2, §3, §4, §5, §6

[3] = system: Setaria; test: Post-emergence test/greenhouse; format: in vivo; conditions: 504 h, 1000 g of ai./ha, plants 5-15 cm sprayed, rated after three weeks vs untreated control, 0%=no effect, 100%=total destruction, read-out: degree of damage to the plants, Setaria
Description: as §1, §2, §3, §4, §5, §6

[4] = system: Sinapis; test: Post-emergence test/greenhouse; format: in vivo; conditions: 504 h, 1000 g of ai./ha, plants 5-15 cm sprayed, rated after three weeks vs untreated control, 0%=no effect, 100%=total destruction, read-out: degree of damage to the plants, Sinapis
Description: as §1, §2, §3, §4, §5, §6

[5] = system: Maize; test: Post-emergence test/greenhouse; format: in vivo; conditions: Zea mays, 504 h, 1000 g of ai./ha, plants 5-15 cm sprayed, rated after three weeks vs untreated control, 0%=no effect, 100%=total destruction, read-out: degree of damage to the plants, Maize
Description: as §1, §2, §3, §4, §5, §6

[6] = system: weeds; test: Post-emergence test, summary on weeds; format: in vivo; conditions: result in words
Description: as §1, §2, §3, §4, §5, §6

[7] = system: Amaranthus; test: Pre-emergence test/greenhouse; format: in vivo; conditions: 1000 g of ai./ha, rated after three weeks vs untreated control, 0%=no effect, 100%=total destruction
Description: (§7) Pre-emergence Test Solvent: 5 parts by weight of acetone Emulsifier: 1 part by weight of alkylaryl polyglycol ether To produce a suitable preparation of active compound, 1 part by weight of active compound is mixed with the stated amount of solvent, the stated amount of emulsifier is added and the concentrate is diluted with water to the desired concentration. Seeds of the test plants are sown in normal soil. After about 24 hours, the soil is sprayed with the preparation of active compound such that the particular amounts of active compound desired are applied per unit area. The concentration of the spray liquor is chosen so that the particular amounts of active compound desired are applied in 1000 l of water/ha. After three weeks, the degree of damage to the plants is rated in % damage in comparison with the development of the untreated control. The figures denote: 0%=no effect (like untreated control) 100%=total destruction

[8] = system: Setaria; test: Pre-emergence test/greenhouse; format: in vivo; conditions: 1000 g of ai./ha, rated after three weeks vs untreated control, 0%=no effect, 100%=total destruction
Description: as §7

[9] = system: Galium; test: Pre-emergence test/greenhouse; format: in vivo; conditions: 1000 g of ai./ha, rated after three weeks vs untreated control, 0%=no effect, 100%=total destruction
Description: as §7

[10] = system: Maize; test: Pre-emergence test/greenhouse; format: in vivo; conditions: for degree of damage to the plants, Maize: pre-emergence, 1000 g of ai./ha, rated after three weeks vs untreated control, 0%=no effect, 100%=total destruction; for tolerance by crop plants, such as, for example, maize: pre-emergence test, result in words
Description: as §7

[11] = system: Xanthium; test: Post-emergence test/greenhouse; format: in vivo; conditions: 1000 g of ai./ha, plants 5-15 cm sprayed, rated after three weeks vs untreated control, 0%=no effect, 100%=total destruction
Description: as §1, §2, §3, §4, §5, §6

[12] = system: weeds; test: Pre-emergence test, summary on weeds; format: in vivo; conditions: result in words
Description: as §7

[13] = system: Sinapis; test: Pre-emergence test/greenhouse; format: in vivo; conditions: 1000 g of ai./ha, rated after three weeks vs untreated control, 0%=no effect, 100%=total destruction
Description: as §7

Row | SMILES | pest or weed control at 1000 g/ha [1] [%] | pest or weed control at 1000 g/ha [2] [%] | pest or weed control at 1000 g/ha [3] [%] | pest or weed control at 1000 g/ha [4] [%] | plant injury at 1000 g/ha [5] [%] | action against weeds [6] | further results
1 | CCc1nc(NC(C)=O)nc(NC(C)c2cccs2)n1 (stereo not shown) [drawing 226] | 100 | 100 | 90 | 100 | 0 |  | 
2 | CCC(Nc1nc(N)nc(C(C)Cl)n1)c1cccs1 (stereo not shown) [Example 14] |  |  |  |  |  | strong action | 
3 | CCC(Nc1nc(N)nc(C(C)F)n1)c1cccs1 (stereo not shown) [drawing 223] |  |  |  |  |  |  | degree of damage to the plants, Amaranthus [7]: 100%; degree of damage to the plants, Setaria [8]: 90%; degree of damage to the plants, Galium [9]: 100%; degree of damage to the plants, Maize [10]: 0%
4 | CCC(Nc1nc(N)nc(C(Cl)Cl)n1)c1cccs1 (stereo not shown) [Example 13] |  |  |  |  |  | strong action | 
5 | CCC(Nc1nc(NC(C)=O)nc(C(C)(Cl)Cl)n1)c1cccs1 (stereo not shown) [drawing 238] |  | 100 | 100 | 100 |  |  | degree of damage to the plants, Xanthium [11]: 100%
6 | CCc1nc(N)nc(NC(C)c2cccs2)n1 (stereo not shown) [Example 1, 2-amino-4-ethyl-6-(1-thien-2-yl-ethylamino)-1,3,5-triazine] |  |  |  |  |  | strong action | 
7 | CCC(Nc1nc(NC(C)=O)nc(C(Cl)Cl)n1)c1cccs1 (stereo not shown) [drawing 232] | 100 | 100 | 100 | 100 | 0 |  | 
8 | CCC(Nc1nc(N)nc(C(F)C(F)(F)F)n1)c1cccs1 (stereo not shown) [Example 16] |  |  |  |  |  | strong action | 
9 | CCC(Nc1nc(NC(C)=O)nc(C(C)F)n1)c1cccs1 (stereo not shown) [drawing 235] | 100 | 100 | 100 | 100 |  |  | 
10 | CC(Nc1nc(N)nc(C(Cl)Cl)n1)c1cccs1 (stereo not shown) [drawing 234] | 100 | 100 | 90 | 100 |  |  | 
11 | CCC(Nc1nc(N)nc(C(Cl)Cl)n1)c1cccs1 (stereo not shown) [drawing 237] |  | 100 | 100 | 100 | 10 |  | degree of damage to the plants, Xanthium [11]: 80%
12 | CCC(Nc1nc(NC(C)=O)nc(C(C)Cl)n1)c1cccs1 (stereo not shown) [Example 21] |  |  |  |  |  | strong action | 
13 | CCC(Nc1nc(NC(C)=O)nc(C(C)(Cl)Cl)n1)c1cccs1 (stereo not shown) [Example 24] |  |  |  |  |  | strong action | melting point: 113 °C
14 | CCc1nc(NC(C)=O)nc(NC(C)c2cccs2)n1 (stereo not shown) [Example 2, 2-acetylamino-4-ethyl-6-(1-thien-2-yl-ethyl-amino)-1,3,5-triazine] |  |  |  |  |  | strong action | melting point: 153 °C
15 | CC(Nc1nc(N)nc(C(Cl)Cl)n1)c1cccs1 (stereo not shown) [Example 5] |  |  |  |  |  | strong action | melting point: 135 °C
16 | CCc1nc(N)nc(NC(C)c2cccs2)n1 (stereo not shown) [drawing 225] | 100 | 100 |  | 100 | 30 |  | 
17 | CC(Cl)c1nc(N)nc(NC(C)c2cccs2)n1 (stereo not shown) [Example 6] |  |  |  |  |  | strong action | melting point: 125 °C
18 | CCC(Nc1nc(NC(C)=O)nc(C(C)Cl)n1)c1cccs1 (stereo not shown) [drawing 233] | 100 | 100 | 100 | 100 | 0 |  | 
19 | CCC(Nc1nc(N)nc(C(C)F)n1)c1cccs1 (stereo not shown) [Example 15] |  |  |  |  |  | strong action | tolerance by crop plants, such as, for example, maize [10]: tolerated very well; action against weeds [12]: strong action
20 | CCc1nc(N)nc(NC(CC)c2cccs2)n1 (stereo not shown) [drawing 227] | 100 | 100 | 100 | 100 | 30 |  | 
21 | CCC(Nc1nc(NC(C)=O)nc(C(C)F)n1)c1cccs1 (stereo not shown) [drawing 224] |  |  |  |  |  |  | degree of damage to the plants, Amaranthus [7]: 95%; degree of damage to the plants, Setaria [8]: 100%; degree of damage to the plants, Galium [9]: 100%; degree of damage to the plants, Sinapis [13]: 100%; degree of damage to the plants, Maize [10]: 0%
22 | CCc1nc(NC(C)=O)nc(NC(CC)c2cccs2)n1 (stereo not shown) [drawing 231] | 100 | 100 | 100 | 100 | 20 |  | 
23 | CCC(Nc1nc(N)nc(C(F)C(F)(F)F)n1)c1cccs1 (stereo not shown) [drawing 230] | 100 | 100 | 100 | 100 | 10 |  | 
24 | CCc1nc(N)nc(NC(CC)c2cccs2)n1 (stereo not shown) [Example 11] |  |  |  |  |  | strong action | 
25 | CCc1nc(NC(C)=O)nc(NC(CC)c2cccs2)n1 (stereo not shown) [Example 18] |  |  |  |  |  | strong action | 
26 | CC(Cl)c1nc(N)nc(NC(C)c2cccs2)n1 (stereo not shown) [drawing 236] | 100 | 100 |  |  | 0 |  | degree of damage to the plants, Xanthium [11]: 100%
27 | CCC(Nc1nc(N)nc(C(C)F)n1)c1cccs1 (stereo not shown) [drawing 229] | 100 | 100 | 100 | 100 | 0 |  | 
28 | CCC(Nc1nc(NC(C)=O)nc(C(Cl)Cl)n1)c1cccs1 (stereo not shown) [Example 20] |  |  |  |  |  | strong action | melting point: 131 °C
29 | CCC(Nc1nc(NC(C)=O)nc(C(C)F)n1)c1cccs1 (stereo not shown) [Example 22] |  |  |  |  |  | strong action | tolerance by crop plants, such as, for example, maize [10]: tolerated very well; action against weeds [12]: strong action
30 | CCC(Nc1nc(N)nc(C(C)Cl)n1)c1cccs1 (stereo not shown) [drawing 228] | 100 | 100 | 100 | 100 | 30 |  | 
